Source: patent US8293873B2, “Combination of amino acid solution and a gelatin derivative for inhibiting renal up-take” (BioSynthema Inc., priority 2006, dated 2012)

Test system: kidney uptake of [177Lu-DOTA0,Tyr3]octreotate
Test: Kidney uptake of [177Lu-DOTA0,Tyr3]octreotate measured by NanoSPECT in rats
Type: in vivo, Male Lewis rats
Procedure: For reduction of kidney rats were injected with 20 mg Gelofusine, 100 mg lysine or the combination. Kidney uptake was measured by SPECT scans with a […] multi-pinhole camera (NanoSPECT, Bioscan) at 24 h, 5 and 7 days pi. Kidney uptake was quantified by VOI analysis.

NCCCC[C@H](N)C(=O)O [lysine]
inhibition of kidney uptake of [177Lu-DOTA0,Tyr3]octreotate (24 h pi, 555 MBq, 20 mg Gelofusine, 100 mg lysine or the combination, SPECT VOI analysis): 37%±6%
reduction of kidney uptake with an overdose of lysine alone (rats, overdose of lysine alone): did not improve the reduction of the kidney uptake
